# According to the METLIN SMRT retention time set (Domingo-Almenara et al. 2019):
# Experiment: gradient 5% acetonitrile 3 min, to 50% in 2 min, to 85% in 15 min, held 3 min, 100 µL/min
# Details: column: Zorbax Extend-C18 2.1 x 50 mm; eluents: water / acetonitrile, 0.1% formic acid
# In short: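 A Zorbax Extend-C18 column (2.1 × 50 mm, 1.8 μm) run at 100 μL/min with water and acetonitrile, both containing 0.1% formic acid, separated mixtures of ~100 pure standards. The HPLC was coupled to a quadrupole time-of-flight mass spectrometer operated in positive and negative ionization mode, with dead and dwell volumes of 40 μL and 900 μL. Each retention time was taken from a computationally picked adduct peak that was then manually inspected.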
row,Structure (SMILES),RP-LC retention time [s]
1,COc1ccc(NC(=O)C2CCN(S(=O)(=O)c3ccc4c(c3)CCCC(=O)N4)CC2)c(OC)c1,741
2,O=C(CCCCCCSc1ccc2ccccc2c1)NO,863
3,COc1cc(C)c(C)cc1S(=O)(=O)NCC1CCN(c2ncccn2)CC1,806
4,CC(C)n1nnc2cc(C(=O)N(C)CC(=O)Nc3ccc(F)cc3)ccc21,726
5,Cc1cc2nc(C(F)(F)F)c(=O)n(C(C)C(=O)NCCN(C)C)c2cc1C (stereo not given),695
6,Cc1ccc(CNC(=O)C2(c3ccc(NC(=O)C(C)C)cc3)CCC2)cc1C,936
7,CN(C)c1ccc(C(=O)NCC(=O)Nc2nc3ccccc3[nH]2)cc1,625
8,Cc1cc(-c2ccc(S(=O)(=O)N3CCC(C(=O)NCc4cccs4)CC3)o2)n[nH]1,735
9,CCN(CC)C(=O)Cn1c(Cc2ccc(Cl)cc2)nc2ccccc21,693
10,COc1cccc2cc(C(=O)N3CCN(CCn4cccn4)CC3)oc12,571
11,COc1cc2c(cc1NC(=O)c1ccco1)n(C)c(=O)n2C,688
12,Cc1nc(C2CCOCC2)n(C2CCN(S(=O)(=O)c3ccc(C(C)(C)C)cc3)C2)n1 (stereo not given),871
13,CCCCNC(=O)c1ccc2c(c1)NC(=O)C(C(C)C)N2 (stereo not given),684
14,CN(C)c1ccc(CCNC(=O)C(=O)NC2CC2)cc1,523
15,O=C(O)c1cnc(NCC2CC2)nc1-c1ccccc1,745
16,CCCN1CCCCc2cc(C(=O)NC(C)COC)sc21 (stereo not given),907
17,COCCNc1ncc(C(=O)O)c(-c2ccc(OC)cc2)n1,658
18,O=C(NCC1CCOCC1)Nc1ccccc1,656
19,O=C(NCc1cccs1)c1ccc(N2CCCCS2(=O)=O)cc1,696
20,CCn1ncn2cc(S(=O)(=O)Nc3ccccc3F)cc2c1=O,830
21,O=C(Cn1nc2c(N3CCCCCC3)nccn2c1=O)Nc1cccc(C(F)(F)F)c1,805
22,CCCc1cc(N2CCN(C(=O)c3cc(OC)cc(OC)c3)CC2)nc2nncn12,576
23,O=C(Nc1ccc(N2CCCS2(=O)=O)cc1)NC(c1ccccc1)c1ccccc1,814
24,O=C(O)CCc1conc1-c1ccccc1F,712

row,Structure (SMILES),RP-LC retention time [s]
1,COc1cc(N)c(Cl)cc1C(=O)OCCN1CCCCC1,629
2,O=C(NC1CCCCCCC1)C1CCCN(C(=O)Cc2cccc3ccccc23)C1 (stereo not given),1060
3,Cc1cc2c(c(=O)n(-c3ccccc3)c(=O)n2CC(=O)Nc2cccc(F)c2)n1C,837
4,Cc1ccc(Sc2nccnc2N2CCCC(C(=O)N3CCN(c4ccccc4C)CC3)C2)cc1 (stereo not given),1330
5,CNC(=O)C1CCCN(c2nc3ncn(CC(=O)NCCC4=CCCCC4)c(=O)c3s2)C1 (stereo not given),685
6,COc1ccc(C(O)CN2CCN(c3ccc(C)cc3)CC2)cc1 (stereo not given),663
7,COc1ccc(C(=O)Nc2sc3ccccc3c(=O)c2-c2cccs2)cc1OC,951
8,CCOCC(=O)N1CCCN(C2=NS(=O)(=O)C(c3ccc(C)c(C)c3)=C2C)CC1,795
9,CCn1cc(C)c(C(=O)O)c1CC(=O)NCCN1CCN(C)CC1,561
10,CCCCNC(=O)C1CCCN(c2nnc3ccc(Cl)cn23)C1 (stereo not given),704
11,Cc1ccc(S(=O)(=O)N2C[C@@H](F)C[C@H]2C(=O)N2CCCCC2)c(C)c1,874
12,O=C(Nc1ccc(F)cc1)c1c(O)c2cccnc2n(-c2ccc(F)cc2)c1=O,1200
13,CCCc1cc(N2CCN(C(=O)c3ccc(C)s3)CC2)nc2nnc(C)n12,643
14,COc1ccc(-n2nc(N3CCCC(C(=O)NC(C)CCc4ccccc4)C3)ccc2=O)cc1 (stereo not given),884
15,Cc1ccccc1NC(=O)N1CCCC(C)(C(=O)NCc2ccc(F)cc2)C1 (stereo not given),899
16,CC1=C(c2ccc(C)cc2)S(=O)(=O)N=C1N1CCCN(C(=O)NCCC(C)C)CC1,895
17,CCc1ccc(OCC(=O)Nc2cnn(CC)c(=O)c2N2CCOCC2)cc1,981
18,Cn1c(=O)c2nc(S(=O)(=O)CCC(=O)Nc3ccc(Br)cc3)n(C)c2n(C)c1=O,779
19,O=S(=O)(Cc1ccccc1)N1CCC2(CC1)CC(OCc1ccccc1)CCO2 (stereo not given),1080
20,CCCCNC(=O)CCc1cc2cc(OC)ccc2[nH]c1=O,664
21,Cc1cc(=O)n(CC(=O)Nc2ccccc2)c(N)n1,580
22,COCCCNC(=O)C1CCN(S(=O)(=O)N(CC(C)C)CC(C)C)CC1,877
23,Cn1nc(C(=O)N2CCCC2)c2c1CCN(C(=O)Nc1ccccc1)C2,704
24,COCC1(O)CCOC2(CCN(Cc3ccc(C)cn3)CC2)C1 (stereo not given),568

# Continued, values first:
row,RP-LC retention time [s],Structure (SMILES)
1,841,CCCN1C(=O)COc2cc(-c3noc(C(=O)NC4CC4)n3)ccc21
2,881,COC(=O)c1ccc(NS(=O)(=O)c2ccc3c(c2)C(=O)N(C)c2ncccc2O3)cc1
3,859,CCc1ccc(C2=C(C)C(N3CCCN(C(=O)c4ccsc4)CC3)=NS2(=O)=O)cc1
4,616,CC(=O)N1CCc2cc(-c3ccc(C(=O)NCCCN4CCCCC4C)cc3)ccc21 (stereo not given)
5,676,Cc1ccc(-c2nnc(-c3nc(N4CCN(c5ccccn5)CC4)c4ccccc4n3)o2)cc1
6,703,Cc1ccc(S(=O)(=O)Nc2cccc(-c3cn4cccc(C)c4n3)c2)c(C)c1
7,725,CN1C(=O)c2cccnc2Sc2cc(NC(=O)c3ccsc3)ccc21
8,1140,CCOc1cc(C(=O)Nc2nc(-c3ccc4c(c3)NC(=O)CO4)c(C)s2)cc(OCC)c1OCC
9,710,Cc1ccc2nc(C)c(NC(=O)C3c4ccccc4Oc4ccccc43)c(=O)n2c1
10,935,Cc1ccc(C)c(NC(=O)C2CCN(S(C)(=O)=O)c3cc(Cl)ccc3O2)c1 (stereo not given)
11,840,O=C(NC1CC1)c1cccn1Cc1noc(-c2ccccc2)n1
12,913,Cc1cccc(NC(=O)N(C)CCc2noc(COc3ccccc3)n2)c1C
13,1270,O=C(Nc1ccccc1Cl)c1c(O)c2cccnc2n(-c2cccc(F)c2)c1=O
14,1260,CC1CCN(c2ccc(-c3noc(CN4C(=O)COc5ccccc54)n3)cc2)CC1
15,1000,COC(=O)c1ccc(Cl)cc1NC(=O)N1CCC2(CC1)NC(=O)c1ccccc1O2
16,617,CCN1CCN(c2cc(C)c3cc(NC(=S)NCc4ccc(C)cc4)ccc3n2)CC1
17,657,Cc1nnc2cc(N3CCN(C(=O)Nc4ccc(Cl)cc4)CC3)cnn12
18,616,COC(=O)C1=C(N)Oc2cc(C)n(CCN(C)C)c(=O)c2C1c1ccccc1F (stereo not given)
19,678,O=C1NC2(CCN(C(=O)c3ccc4c(c3)OCO4)CC2)Nc2c(Cl)cccc21
20,918,O=S(=O)(NCC1(c2ccc(F)cc2)CC1)c1ccc2c(c1)OCCO2
21,716,O=C(O)CN1CCCc2nc(-c3ccccc3)ncc2C1=O

row,RP-LC retention time [s],Structure (SMILES)
1,888,Cc1ccc(-c2ccc(N3CCCC(C(=O)NCCC4=CCCCC4)C3)nn2)cc1C (stereo not given)
2,773,CCC(C(=O)Nc1ccc2c(c1)OCO2)n1cnc2nc3c(cc2c1=O)CCCC3 (stereo not given)
3,658,COc1cccc(CNC(=O)Nc2c(-c3ccc(C)cc3)nc3ccccn23)c1
4,539,Cc1cn2c(CCC(=O)NCCn3nc(-c4ccco4)ccc3=O)csc2n1
5,866,COc1ccc(-c2nnc(COc3cccc(NC(=O)c4ccoc4)c3)o2)cc1
6,667,Cc1[nH]c2ccc(-c3nnc(SCC(=O)NCCc4nc5ccccc5[nH]4)o3)cc2c1C
7,583,Cc1cccc(CN2C[C@@H]3C(=O)N(C)C(=O)[C@@H]3C2)c1
8,832,O=C(NCCc1csc(-c2cccc(F)c2)n1)C1CCCC1
9,861,COc1ccccc1-n1ccn(Cc2nc(-c3cccc(F)c3)no2)c(=O)c1=O
10,1140,Cc1ccc(-c2noc(CN3N=NC4C(=O)N(c5ccc(C)c(C)c5)C(=O)C43)n2)cc1C (stereo not given)
11,780,Nc1cc(C2CCN(S(=O)(=O)c3ccc(F)cc3F)CC2)no1
12,1160,Cc1nc(CC(=O)Nc2nc(-c3ccc(-c4ccccc4)cc3)cs2)cs1
13,964,CC(C)N1C(=O)c2cccnc2Sc2cc(NC(=O)c3ccc(Cl)cc3)ccc21
14,626,CCN(CC)C(=O)c1ccc2oc(CN3CCN(C(=O)NCc4ccco4)CC3)nc2c1
15,964,COc1ccccc1-c1noc(C2CCCN2C(=O)Nc2ccc(Br)cc2)n1 (stereo not given)
16,581,O=C(Cc1cc(-c2ccco2)on1)NCc1ccccn1
17,941,Cc1ccc(C(=O)NCc2ccc3c(c2)CCCN3C(=O)C2CCC2)c(C)c1
18,784,COc1ccc(-c2c(C)noc2NC(C)=O)cc1S(=O)(=O)N1CCc2ccccc21
19,698,COCCNc1c(-c2ccc(C)cc2)nc2sc(C(=O)N(C)C)c(C)n12
20,809,O=C(c1ccc(F)cc1)N1CCC(CCNS(=O)(=O)c2ccc(F)cc2F)CC1
21,1070,O=C1COc2cc(Cl)ccc2N1Cc1nc(-c2ccc3c(c2)OCO3)no1
